Assay in all cases: biochemical
Assay type in all cases: biochemical

Experiment [1] addresses T1, 382 unique human kinases (Homo sapiens, UniProt P35968).
T1 construct: purchased Reaction Biology (HotSpot contract assay)
To be noted: kinase KDR/VEGFR2, compound 10 uM; for remaining activity at 10 µM: read-out: % Enzyme Activity (relative to DMSO controls).

Experiment [2] addresses T2, 382 unique human kinases (Homo sapiens, UniProt Q00535).
T2 construct: purchased Reaction Biology (HotSpot contract assay)
The conditions noted are these: for remaining activity at 10 µM: read-out: % Enzyme Activity (relative to DMSO controls).

Experiment [3] has as its target T3, 382 unique human kinases (Homo sapiens, UniProt Q9BYT3).
T3 construct: purchased Reaction Biology (HotSpot contract assay)
The conditions noted are these: kinase STK33, compound 10 uM; for remaining activity at 10 µM: read-out: % Enzyme Activity (relative to DMSO controls).

Experiment [4] concerns the target T4, 382 unique human kinases (Homo sapiens, UniProt Q9UEW8).
T4 construct: purchased Reaction Biology (HotSpot contract assay)
The conditions noted are these: STK39/STLK3, 10 uM; for remaining activity at 10 µM: read-out: % Enzyme Activity (relative to DMSO controls).

Experiment [5] addresses T5, 382 unique human kinases (Homo sapiens, UniProt P00519, Y253H).
T5 construct: purchased Reaction Biology (HotSpot contract assay)
To be noted: ABL1 (Y253H), [ATP] 10 µM, compound 10 uM; for remaining activity at 10 µM: read-out: % Enzyme Activity (relative to DMSO controls).

In experiment [6] the target is T6, 382 unique human kinases (Homo sapiens, UniProt O60285).
T6 construct: purchased Reaction Biology (HotSpot contract assay)
T6 sequence (O60285 1-661): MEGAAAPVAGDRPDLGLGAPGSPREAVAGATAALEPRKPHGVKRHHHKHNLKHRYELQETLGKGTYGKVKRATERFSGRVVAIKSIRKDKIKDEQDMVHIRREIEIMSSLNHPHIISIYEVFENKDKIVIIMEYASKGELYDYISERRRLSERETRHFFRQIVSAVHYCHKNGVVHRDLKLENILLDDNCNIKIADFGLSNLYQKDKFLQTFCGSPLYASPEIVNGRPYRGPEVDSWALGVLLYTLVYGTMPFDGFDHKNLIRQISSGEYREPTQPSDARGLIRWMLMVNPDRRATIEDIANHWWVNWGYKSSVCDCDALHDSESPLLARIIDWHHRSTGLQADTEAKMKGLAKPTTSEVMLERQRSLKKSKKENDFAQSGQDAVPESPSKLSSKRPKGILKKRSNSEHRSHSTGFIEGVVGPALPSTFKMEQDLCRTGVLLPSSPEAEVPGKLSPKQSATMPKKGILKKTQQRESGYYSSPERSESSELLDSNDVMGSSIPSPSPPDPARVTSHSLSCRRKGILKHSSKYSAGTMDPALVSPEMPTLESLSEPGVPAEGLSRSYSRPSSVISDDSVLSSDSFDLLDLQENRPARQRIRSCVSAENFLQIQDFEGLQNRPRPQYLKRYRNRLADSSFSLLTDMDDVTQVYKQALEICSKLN
The conditions noted are these: ARK5/NUAK1, 10 uM; for remaining activity at 10 µM: read-out: % Enzyme Activity (relative to DMSO controls).

Experiment [7] has as its target T7, 382 unique human kinases (Homo sapiens, UniProt P21709).
T7 construct: purchased Reaction Biology (HotSpot contract assay)
T7 sequence (P21709 26-976): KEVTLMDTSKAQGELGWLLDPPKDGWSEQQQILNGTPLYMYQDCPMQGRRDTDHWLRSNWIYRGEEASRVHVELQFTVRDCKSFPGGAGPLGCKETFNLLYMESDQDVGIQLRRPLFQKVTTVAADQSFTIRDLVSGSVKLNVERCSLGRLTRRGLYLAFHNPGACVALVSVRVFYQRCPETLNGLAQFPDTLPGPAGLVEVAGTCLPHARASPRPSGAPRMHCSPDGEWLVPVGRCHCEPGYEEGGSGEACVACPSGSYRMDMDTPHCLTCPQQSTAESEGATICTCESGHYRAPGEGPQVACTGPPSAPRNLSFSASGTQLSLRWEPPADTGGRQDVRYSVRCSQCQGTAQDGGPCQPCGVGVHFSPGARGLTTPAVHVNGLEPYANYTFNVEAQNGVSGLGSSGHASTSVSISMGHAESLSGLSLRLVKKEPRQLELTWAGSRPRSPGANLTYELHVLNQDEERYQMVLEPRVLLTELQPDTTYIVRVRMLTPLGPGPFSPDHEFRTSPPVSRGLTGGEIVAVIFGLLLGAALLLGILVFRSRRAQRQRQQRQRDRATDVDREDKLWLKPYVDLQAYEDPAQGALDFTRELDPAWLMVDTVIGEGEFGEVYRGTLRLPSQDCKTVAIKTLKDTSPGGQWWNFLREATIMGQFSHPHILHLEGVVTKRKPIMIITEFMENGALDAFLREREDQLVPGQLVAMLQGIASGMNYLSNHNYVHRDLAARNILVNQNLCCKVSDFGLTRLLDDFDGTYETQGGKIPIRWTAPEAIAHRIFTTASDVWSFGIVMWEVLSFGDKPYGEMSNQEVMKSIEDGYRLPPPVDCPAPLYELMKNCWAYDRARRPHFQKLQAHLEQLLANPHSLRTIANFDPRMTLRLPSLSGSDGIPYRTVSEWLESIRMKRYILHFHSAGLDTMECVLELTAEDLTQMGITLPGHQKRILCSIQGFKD
The conditions noted are these: EPHA1, [ATP] 20 µM, compound 10 uM; for remaining activity at 10 µM: read-out: % Enzyme Activity (relative to DMSO controls).

Experiment [8] concerns the target T8, 382 unique human kinases (Homo sapiens, UniProt P10721, N822K/V560G).
T8 construct: purchased Reaction Biology (HotSpot contract assay)
The conditions noted are these: c-Kit (V560G/N822K), [ATP] 5 µM, compound 10 uM; for remaining activity at 10 µM: read-out: % Enzyme Activity (relative to DMSO controls).

Experiment [9] addresses T9, 382 unique human kinases (Homo sapiens, UniProt Q15118).
T9 construct: purchased Reaction Biology (HotSpot contract assay)
The conditions noted are these: PDK1/PDHK1, [ATP] 50 µM, compound 10 uM; for remaining activity at 10 µM: read-out: % Enzyme Activity (relative to DMSO controls).

For experiment [10], the target named is T10, 382 unique human kinases (Homo sapiens, UniProt O14965).
T10 construct: purchased Reaction Biology (HotSpot contract assay)
T10 sequence (O14965 1-403): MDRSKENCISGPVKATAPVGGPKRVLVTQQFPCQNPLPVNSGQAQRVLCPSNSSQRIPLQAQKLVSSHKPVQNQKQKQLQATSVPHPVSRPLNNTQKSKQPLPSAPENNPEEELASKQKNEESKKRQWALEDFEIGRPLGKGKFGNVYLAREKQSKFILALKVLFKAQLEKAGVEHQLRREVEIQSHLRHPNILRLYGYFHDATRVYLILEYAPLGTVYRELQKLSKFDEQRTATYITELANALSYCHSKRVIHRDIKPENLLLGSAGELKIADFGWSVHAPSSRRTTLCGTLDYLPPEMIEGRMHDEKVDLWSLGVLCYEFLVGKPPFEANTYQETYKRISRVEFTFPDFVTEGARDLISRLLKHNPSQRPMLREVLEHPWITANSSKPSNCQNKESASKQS
The conditions noted are these: Aurora A, [ATP] 2.5 µM, compound 10 uM; for remaining activity at 10 µM: read-out: % Enzyme Activity (relative to DMSO controls).

For experiment [11], the target named is T11, 382 unique human kinases (Homo sapiens, UniProt P41279).
T11 construct: purchased Reaction Biology (HotSpot contract assay)
To be noted: COT1/MAP3K8, 10 uM; for remaining activity at 10 µM: read-out: % Enzyme Activity (relative to DMSO controls).

[12] abbreviates: kinase CDK5/p25, compound 10 uM.

Where two headings read alike, the source gives them in different places.

T8 sequence (P10721 26-976 V560G/N822K): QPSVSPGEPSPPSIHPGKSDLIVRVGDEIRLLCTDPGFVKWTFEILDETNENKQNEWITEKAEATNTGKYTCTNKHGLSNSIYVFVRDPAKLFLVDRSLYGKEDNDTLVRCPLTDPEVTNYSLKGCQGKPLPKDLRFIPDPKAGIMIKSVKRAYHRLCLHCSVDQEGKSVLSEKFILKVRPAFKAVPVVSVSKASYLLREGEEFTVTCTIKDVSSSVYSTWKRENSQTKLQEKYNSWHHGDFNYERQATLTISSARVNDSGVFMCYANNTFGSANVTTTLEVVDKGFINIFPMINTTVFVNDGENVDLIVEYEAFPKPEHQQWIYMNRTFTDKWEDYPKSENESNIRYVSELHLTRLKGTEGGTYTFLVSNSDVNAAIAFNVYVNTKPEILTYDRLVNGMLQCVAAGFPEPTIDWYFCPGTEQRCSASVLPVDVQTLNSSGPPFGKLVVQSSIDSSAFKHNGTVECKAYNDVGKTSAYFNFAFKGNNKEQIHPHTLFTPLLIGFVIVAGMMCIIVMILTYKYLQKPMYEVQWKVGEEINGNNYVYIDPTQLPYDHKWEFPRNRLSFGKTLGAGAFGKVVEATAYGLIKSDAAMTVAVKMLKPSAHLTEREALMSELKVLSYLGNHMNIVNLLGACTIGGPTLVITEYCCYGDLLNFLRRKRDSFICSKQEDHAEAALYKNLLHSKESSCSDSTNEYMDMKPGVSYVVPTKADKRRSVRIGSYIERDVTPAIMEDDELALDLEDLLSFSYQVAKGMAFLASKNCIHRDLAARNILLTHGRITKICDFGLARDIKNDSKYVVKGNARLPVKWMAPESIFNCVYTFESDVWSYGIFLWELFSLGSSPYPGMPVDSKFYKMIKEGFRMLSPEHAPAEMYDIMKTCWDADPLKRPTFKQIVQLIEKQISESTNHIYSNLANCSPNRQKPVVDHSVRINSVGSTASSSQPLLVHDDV
T3 sequence (Q9BYT3 whole entry): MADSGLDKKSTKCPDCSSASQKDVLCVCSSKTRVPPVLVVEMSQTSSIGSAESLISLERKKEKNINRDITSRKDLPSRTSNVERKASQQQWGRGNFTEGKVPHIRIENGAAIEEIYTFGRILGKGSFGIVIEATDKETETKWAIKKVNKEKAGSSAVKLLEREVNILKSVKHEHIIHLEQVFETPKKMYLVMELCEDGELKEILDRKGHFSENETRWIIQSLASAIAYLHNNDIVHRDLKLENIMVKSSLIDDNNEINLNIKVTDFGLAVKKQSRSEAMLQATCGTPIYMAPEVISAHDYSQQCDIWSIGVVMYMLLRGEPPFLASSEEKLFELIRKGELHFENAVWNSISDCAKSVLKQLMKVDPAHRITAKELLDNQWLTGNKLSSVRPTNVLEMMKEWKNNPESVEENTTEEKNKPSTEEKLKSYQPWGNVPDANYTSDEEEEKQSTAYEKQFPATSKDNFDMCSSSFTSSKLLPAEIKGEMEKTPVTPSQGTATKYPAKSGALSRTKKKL
T11 sequence (P41279 whole entry): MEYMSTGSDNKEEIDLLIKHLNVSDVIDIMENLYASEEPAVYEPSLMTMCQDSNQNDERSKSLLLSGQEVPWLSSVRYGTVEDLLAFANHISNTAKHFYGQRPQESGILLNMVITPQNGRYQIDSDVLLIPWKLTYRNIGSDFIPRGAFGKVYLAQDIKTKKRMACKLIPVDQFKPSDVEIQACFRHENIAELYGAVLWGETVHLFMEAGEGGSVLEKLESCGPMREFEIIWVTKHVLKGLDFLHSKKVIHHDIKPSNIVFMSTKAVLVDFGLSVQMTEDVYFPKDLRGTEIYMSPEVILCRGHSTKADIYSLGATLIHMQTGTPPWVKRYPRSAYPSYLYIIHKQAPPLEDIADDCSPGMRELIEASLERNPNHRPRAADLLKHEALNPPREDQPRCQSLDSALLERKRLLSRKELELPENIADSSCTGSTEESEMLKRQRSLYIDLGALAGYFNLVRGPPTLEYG
T9 sequence (Q15118 29-436): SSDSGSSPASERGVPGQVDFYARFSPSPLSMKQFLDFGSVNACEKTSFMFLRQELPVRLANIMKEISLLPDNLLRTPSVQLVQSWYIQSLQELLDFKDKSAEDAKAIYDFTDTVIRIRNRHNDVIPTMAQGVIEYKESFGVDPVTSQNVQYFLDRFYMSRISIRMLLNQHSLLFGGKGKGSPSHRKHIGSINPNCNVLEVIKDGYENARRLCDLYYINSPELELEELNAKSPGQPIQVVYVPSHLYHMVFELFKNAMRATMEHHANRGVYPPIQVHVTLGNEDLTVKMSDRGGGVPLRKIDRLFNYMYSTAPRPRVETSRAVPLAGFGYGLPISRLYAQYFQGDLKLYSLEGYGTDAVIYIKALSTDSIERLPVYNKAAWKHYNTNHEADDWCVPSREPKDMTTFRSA
T1 sequence (P35968 20-1356): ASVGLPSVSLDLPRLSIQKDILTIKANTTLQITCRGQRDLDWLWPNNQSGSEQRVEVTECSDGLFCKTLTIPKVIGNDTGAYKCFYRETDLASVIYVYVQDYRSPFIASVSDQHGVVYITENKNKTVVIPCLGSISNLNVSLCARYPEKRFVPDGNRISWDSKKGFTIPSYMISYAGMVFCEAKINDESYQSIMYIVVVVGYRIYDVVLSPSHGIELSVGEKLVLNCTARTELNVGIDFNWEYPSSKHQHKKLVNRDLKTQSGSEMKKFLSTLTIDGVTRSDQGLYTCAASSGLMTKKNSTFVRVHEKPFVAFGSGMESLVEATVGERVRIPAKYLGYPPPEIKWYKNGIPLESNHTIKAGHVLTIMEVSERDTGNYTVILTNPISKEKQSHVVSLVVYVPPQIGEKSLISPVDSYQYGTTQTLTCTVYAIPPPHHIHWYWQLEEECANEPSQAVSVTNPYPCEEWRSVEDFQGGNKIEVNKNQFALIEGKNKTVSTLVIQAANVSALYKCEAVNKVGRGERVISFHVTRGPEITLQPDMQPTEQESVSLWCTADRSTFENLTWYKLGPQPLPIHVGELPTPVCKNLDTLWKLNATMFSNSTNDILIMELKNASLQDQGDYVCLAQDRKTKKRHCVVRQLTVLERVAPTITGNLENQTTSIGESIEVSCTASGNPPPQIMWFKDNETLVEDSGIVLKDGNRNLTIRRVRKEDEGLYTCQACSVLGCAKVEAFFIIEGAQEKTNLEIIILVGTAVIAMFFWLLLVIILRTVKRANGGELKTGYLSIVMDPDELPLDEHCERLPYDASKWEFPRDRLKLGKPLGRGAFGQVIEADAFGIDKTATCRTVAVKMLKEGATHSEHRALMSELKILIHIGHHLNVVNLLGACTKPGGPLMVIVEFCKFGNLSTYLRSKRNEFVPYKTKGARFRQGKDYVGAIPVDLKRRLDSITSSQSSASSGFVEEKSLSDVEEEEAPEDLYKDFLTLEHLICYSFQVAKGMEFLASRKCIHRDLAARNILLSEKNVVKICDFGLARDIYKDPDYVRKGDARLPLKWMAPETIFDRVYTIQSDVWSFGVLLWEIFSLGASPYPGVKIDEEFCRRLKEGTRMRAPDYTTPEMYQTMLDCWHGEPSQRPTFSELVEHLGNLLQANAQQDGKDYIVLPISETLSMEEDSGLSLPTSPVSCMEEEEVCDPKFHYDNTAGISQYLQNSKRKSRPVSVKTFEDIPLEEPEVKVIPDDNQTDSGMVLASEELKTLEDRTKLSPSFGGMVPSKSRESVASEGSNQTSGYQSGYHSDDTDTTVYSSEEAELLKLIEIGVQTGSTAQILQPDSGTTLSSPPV
T5 sequence (P00519 whole entry Y253H): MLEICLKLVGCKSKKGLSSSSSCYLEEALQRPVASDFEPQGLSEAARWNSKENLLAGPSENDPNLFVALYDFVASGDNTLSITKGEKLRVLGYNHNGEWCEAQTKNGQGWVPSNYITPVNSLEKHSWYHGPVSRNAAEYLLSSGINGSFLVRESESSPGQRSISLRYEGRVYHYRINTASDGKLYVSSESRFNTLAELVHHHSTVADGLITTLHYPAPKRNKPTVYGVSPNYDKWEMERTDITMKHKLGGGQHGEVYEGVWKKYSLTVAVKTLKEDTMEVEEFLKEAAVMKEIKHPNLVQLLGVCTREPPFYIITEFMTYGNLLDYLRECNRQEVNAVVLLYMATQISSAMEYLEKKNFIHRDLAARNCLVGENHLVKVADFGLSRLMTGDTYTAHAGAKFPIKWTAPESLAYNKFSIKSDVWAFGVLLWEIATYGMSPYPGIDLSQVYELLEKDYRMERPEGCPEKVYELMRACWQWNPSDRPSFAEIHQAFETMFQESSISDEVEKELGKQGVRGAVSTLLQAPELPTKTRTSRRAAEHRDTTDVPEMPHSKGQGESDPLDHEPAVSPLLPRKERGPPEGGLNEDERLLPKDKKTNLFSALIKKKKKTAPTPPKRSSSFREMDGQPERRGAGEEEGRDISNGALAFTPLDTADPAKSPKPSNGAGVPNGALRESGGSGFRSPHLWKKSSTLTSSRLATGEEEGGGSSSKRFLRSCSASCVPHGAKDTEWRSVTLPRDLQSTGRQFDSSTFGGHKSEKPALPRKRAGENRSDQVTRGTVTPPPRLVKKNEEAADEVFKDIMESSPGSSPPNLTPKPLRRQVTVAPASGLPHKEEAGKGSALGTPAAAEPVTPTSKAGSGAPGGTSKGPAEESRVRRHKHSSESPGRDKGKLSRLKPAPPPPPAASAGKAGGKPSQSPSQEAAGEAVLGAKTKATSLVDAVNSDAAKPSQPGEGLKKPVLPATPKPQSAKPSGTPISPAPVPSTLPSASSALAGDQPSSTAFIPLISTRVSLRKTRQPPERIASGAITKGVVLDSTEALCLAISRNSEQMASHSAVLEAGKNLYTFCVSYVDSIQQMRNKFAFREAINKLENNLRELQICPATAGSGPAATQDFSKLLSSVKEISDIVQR

Consider `CC(C)c1cc(-c2n[nH]c(=O)n2-c2ccc3c(ccn3C)c2)c(O)cc1O` [Ganetespib (STA9090)], for which the remaining activity at 10 µM was found to be 88.7% on 382 unique human kinases [1]; 70.1% on 382 unique human kinases [2] (CDK5/p35, 10 uM); 80.9% at 382 unique human kinases [2] (setting [12]); 81.4% on 382 unique human kinases [3]; 70.5% on 382 unique human kinases [4].

On to `CC(C)c1cc(-c2n[nH]c(=O)n2-c2ccc3c(ccn3C)c2)c(O)cc1O` [Ganetespib], for which the remaining activity at 10 µM at 382 unique human kinases [5] worked out at 9.65%; at 382 unique human kinases [6] it was 97.3%; at 382 unique human kinases [7], 60.7%; at 382 unique human kinases [8], 41.8%; at 382 unique human kinases [9], 54.4%; at 382 unique human kinases [10], 35%. Moreover, the remaining activity at 10 µM at 382 unique human kinases [11] was determined as 116%.

Regarding `CCNC(=O)c1noc(-c2cc(C(C)C)c(O)cc2O)c1-c1ccc(CN2CCOCC2)cc1` [Luminespib (AUY-922)], the “% Enzyme Activity (relative to DMSO controls)” value at 382 unique human kinases [1] was 99.89%; at 382 unique human kinases [2] (CDK5/p35, 10 uM), 102.70%; on 382 unique human kinases [2] (setting [12]), 102.12%; at 382 unique human kinases [3], 103.02%; at 382 unique human kinases [4], 90.56%. Moreover, the remaining activity at 10 µM turned out to be 101% on 382 unique human kinases [1]; 103% on 382 unique human kinases [2] (CDK5/p35, 10 uM); 102% on 382 unique human kinases [2] (setting [12]); 104% at 382 unique human kinases [3]; 93.8% at 382 unique human kinases [4].

Turning to `CCNC(=O)c1noc(-c2cc(C(C)C)c(O)cc2O)c1-c1ccc(CN2CCOCC2)cc1` [Luminespib], the “% Enzyme Activity (relative to DMSO controls)” value on 382 unique human kinases [5] was determined as 6.34%; on 382 unique human kinases [6] it was 92.57%; on 382 unique human kinases [7], 101.19%; on 382 unique human kinases [8] it was 75.80%; at 382 unique human kinases [9], 56.21%; on 382 unique human kinases [10], 89.97%. Further, the “% Enzyme Activity (relative to DMSO controls)” value on 382 unique human kinases [11] was determined as 93.56%. Besides, the remaining activity at 10 µM is 6.94% on 382 unique human kinases [5]; 93.9% on 382 unique human kinases [6]; 102% at 382 unique human kinases [7]; 76.2% on 382 unique human kinases [8]; 60% at 382 unique human kinases [9]; 90.7% at 382 unique human kinases [10]. Further, the remaining activity at 10 µM on 382 unique human kinases [11] turned out to be 95.4%.
